From patent US11434241B2, “Pyrimidine derivatives for prevention and treatment of bacterial infections” (UNIVERSITE DE LIEGE, priority 2018, dated 2022) come the findings set out here.

In the assay the test system is S. epidermidis (ATCC 35984) 24h-mature biofilm. Nature of the assay: S. epidermidis 24h-mature biofilm, crystal violet biomass. The format is cell-based, Staphylococcus epidermidis. As to conditions: 80 μM; 24 h treatment of 24-hour mature biofilm. The procedure:
In another experiment we let adhere 0.5×10^8 CFU/ml S. epidermidis cells for 4 hr and let the biofilm form for additional 24 hr in presence of 0.25% glucose, at this point we treated the biofilm with different concentrations of molecule 2329 for 24 h in TSB with 0.25% glucose and determined the biofilm biomass using the crystal violet staining.
For biofilm analysis, we first washed the biofilm 3 times with NaCl 0.9% to eliminate all planktonic bacteria, before incubation with a staining Crystal Violet 1% solution in distilled H2O (dH2O).
Wells are washed 3 times with dH2O to eliminate unbound crystal violet. 400 μl Acetic Acid 10% is then added and incubated at RT for 10 min. Absorbance is measured in triplicate at 570 nm, reflecting total biomass of the biofilm.

`CCCSc1nc(N[C@@H]2C[C@H]2c2ccc(F)c(F)c2)c2ncn(C)c2n1` [Molecule 2329, N-((1R,2S)-2-(3,4-difluorophenyl)cyclopropyl)-9-methyl-2-(propylthio)-9H-purin-6-amine]: the “mature biofilm biomass (crystal violet, absorbance 570 nm)” value was “could reduce”.
